Measurements: US20250092002A1, “FLUORINATED CATIONIC LIPIDS FOR USE IN LIPID NANOPARTICLES” (Acuitas Therapeutics, Inc., priority 2021, published 2025)
Read-outs that look alike come from different tables or passages of the source. Marks after values point to notes of the source that are not given here.

Key:
[1] = Determination of pKa of formulated lipids (TNS fluorescence assay in lipid nanoparticles); type: physicochemical; details: cationic lipid formulated in lipid nanoparticles (cationic lipid/DSPC/cholesterol/PEG-lipid 47.5/10/40.7/1.8 mol %)
Protocol: As described elsewhere, the pKa of formulated cationic lipids is correlated with the effectiveness of LNPs for delivery of nucleic acids (see Jayaraman et al, Angewandte Chemie, International Edition (2012), 51(34), 8529-8533; Semple et al, Nature Biotechnology 28, 172-176 (2010)). The preferred range of pKa is ˜5 to ˜7. The pKa of each cationic lipid was determined in lipid nanoparticles using an assay based on fluorescence of 2-(p-toluidino)-6-napthalene sulfonic acid (TNS). Lipid nanoparticles comprising cationic lipid/DSPC/cholesterol/PEG-lipid (47.5/10/40.7/1.8 mol %) in PBS at a concentration of 0.4 mM total lipid were prepared using the in-line process as described in Example 1. TNS was prepared as a 100 μM stock solution in distilled water. Vesicles were diluted to 24 μM lipid in 2 mL of buffered solutions containing, 10 mM HEPES, 10 mM MES, 10 mM ammonium acetate, 130 mM NaCl, where the pH ranged from 2.5 to 11. An aliquot of the TNS solution was added to give a final concentration of 1 μM and following vortex mixing fluorescence intensity was measured at room temperature in a SLM Aminco Series 2 Luminescence Spectrophotometer using excitation and emission wavelengths of 321 nm and 445 nm. A sigmoidal best fit analysis was applied to the fluorescence data and the pKa was measured as the pH giving rise to half-maximal fluorescence intensity.

[2] = tested on: luciferase expression in the liver; test: In vivo luciferase mRNA expression rodent model (liver luciferase after tail vein injection of mRNA-LNP); set-up: species or system mice; details: for Liver Luc @ 0.5 mg/kg (ng luc/g liver): 0.5 mg mRNA/kg; for Liver Luc @ 0.5 mg/kg (ng luc/g liver) / Liver Luc (ng luc/g liver), determined at 0.3 mg/kg / Liver Luc (ng luc/g liver), determined at 1.0 mg/kg: tail vein injection, liver 4 hours after administration; for Liver Luc (ng luc/g liver), determined at 0.3 mg/kg: 0.3 mg/kg (footnote *)
Protocol: Lipid nanoparticles were prepared and tested according to the general procedures described in PCT Pub. Nos. WO 2015/199952 and WO 2017/004143, the full disclosures of which are incorporated herein by reference. Briefly, cationic lipid, DSPC, cholesterol and PEG-lipid were solubilized in ethanol at a molar ratio of about 50:10:38.5:1.5 or about 47.5:10:40.7:1.8. Lipid nanoparticles (LNP) were prepared at a total lipid to mRNA weight ratio of approximately 10:1 to 40:1. The mRNA is diluted to 0.2 mg/mL in 10 to 50 mM citrate or acetate buffer, pH 4. Syringe pumps were used to mix the ethanolic lipid solution with the mRNA aqueous solution at a ratio of about 1:5 to 1:3 (vol/vol) with total flow rates above 15 mL/min. The ethanol was then removed and the external buffer replaced with PBS by dialysis. Finally, the lipid nanoparticles were filtered through a 0.2 µm pore sterile filter. Lipid nanoparticle particle size was approximately 55-95 nm diameter, and in some instances approximately 70-90 nm diameter as determined by quasi-elastic light scattering using a Malvern Zetasizer Nano ZS (Malvern, UK).
Studies were performed in 6-8 week old female C57BL/6 mice (Charles River) or 8-10 week old CD-1 (Harlan) mice (Charles River) according to guidelines established by an institutional animal care committee (ACC) and the Canadian Council on Animal Care (CCAC). Varying doses of mRNA-lipid nanoparticle were systemically administered by tail vein injection and animals euthanized at a specific time point (e.g., 4 hours) post-administration. Liver and spleen were collected in pre-weighed tubes, weights determined, immediately snap frozen in liquid nitrogen and stored at −80° C. until processing for analysis.
For liver, approximately 50 mg was dissected for analyses in a 2 mL FastPrep tubes (MP Biomedicals, Solon OH). ¼″ ceramic sphere (MP Biomedicals) is added to each tube and 500 μL of Glo Lysis Buffer—GLB (Promega, Madison WI) equilibrated to room temperature is added to liver tissue. Liver tissues were homogenized with the FastPrep24 instrument (MP Biomedicals) at 2×6.0 m/s for 15 seconds. Homogenate was incubated at room temperature for 5 minutes prior to a 1:4 dilution in GLB and assessed using SteadyGlo Luciferase assay system (Promega). Specifically, 50 μL of diluted tissue homogenate was reacted with 50 μL of SteadyGlo substrate, shaken for 10 seconds followed by 5 minute incubation and then quantitated using a CentroXS^3 LB 960 luminometer (Berthold Technologies, Germany). The amount of protein assayed was determined by using the BCA protein assay kit (Pierce, Rockford IL). Relative luminescence units (RLU) were then normalized to total μg protein assayed. To convert RLU to ng luciferase a standard curve was generated with QuantiLum Recombinant Luciferase (Promega).
The FLuc mRNA (L-6107 or L-7202) from Trilink Biotechnologies will express a luciferase protein, originally isolated from the firefly, Photimus pyralis. FLuc is commonly used in mammalian cell culture to measure both gene expression and cell viability. It emits bioluminescence in the presence of the substrate, luciferin. This capped and poly-adenylated mRNA was fully substituted with respect to uridine and/or cytidine nucleosides.
Representative compounds of the disclosure shown in Table 2 were formulated using the following molar ratio: 50% cationic lipid/10% distearoylphosphatidylcholine (DSPC)/38.5% Cholesterol/1.5% PEG lipid 2-[2-(ω-methoxy(polyethyleneglycol2000)ethoxy]-N,N-ditetradecylacetamide) or 47.5% cationic lipid/10% DSPC/40.7% Cholesterol/1.8% PEG lipid. Relative activity was determined by measuring luciferase expression in the liver 4 hours following administration via tail vein injection as described in Example 1. The activity was compared at a dose of 1.0 or 0.5 or 0.3 mg mRNA/kg and expressed as ng luciferase/g liver measured 4 hours after administration, as described in Example 1. Compound numbers in Table 2 refer to the compound numbers of Table 1. […]

[3] = probe 2-(p-toluidino)-6-napthalene sulfonic acid (TNS), 1 µM final, read-out: pKa

Row | Compound | pKa [1, 3] | Liver Luc @ 0.5 mg/kg (ng luc/g liver) [2] [ng luc/g liver] | pKa [1] | Liver Luc (ng luc/g liver), determined at 0.3 mg/kg [2] | Liver Luc (ng luc/g liver), determined at 1.0 mg/kg [2] [ng luc/g liver] | efficacy toward activation of the Luciferase mRNA expression as compared with non-fluorinated analogue ([2]; 0.3 mg/kg and 1.0 mg/kg, versus I-5 analogue and I-11 analogue respectively)
1 | CCCCCCC(CCCC)COC(=O)CCCCCC(CCCCCC(=O)OCC(CCCC)CCCCCC)N(CCN(C)C)C(=O)CCCC(F)(F)F (stereo not shown) [Compound I-16, BIS(2-BUTYLOCTYL) 7-(N-(2-(DIMETHYLAMINO)ETHYL)-5,5,5-TRIFLUOROPENTANAMIDO)TRIDECANEDIOATE] | 5.97 | 1233 ± 305 | – | – | – | –
2 | CCCCCCC(CCCC)COC(=O)CCCCCC(CCCCCC(=O)OCC(CCCC)CCCCCC)N(CCCN(C)C)C(=O)CCCC(F)(F)F (stereo not shown) [Compound I-15, BIS(2-BUTYLOCTYL) 7-(N-(3-(DIMETHYLAMINO)PROPYL)-5,5,5-TRIFLUOROPENTANAMIDO)TRIDECANEDIOATE] | 6.78 | 1007 ± 671 | – | – | – | –
3 | CCCCCCCC(=O)N(C(=O)CCCCN(C)C)C(CCCCCC(=O)OCC(CCCC)CCCCC)CCCCCC(=O)OCC(CCCC)CCCCCC (stereo not shown) [I-11 analogue, reference compound] | – | – | 7.04 | 1626 ± 472 ng luc/g liver | 8102 ± 4319 | –
4 | CCCCCCCCC(CCCCCC)COC(=O)CCCCCC(CCCCCC(=O)OCC(CCCCCC)CCCCCCCC)N(CCCN(C)C)C(=O)CC(F)(F)F (stereo not shown) [Compound I-12, BIS(2-HEXYLDECYL) 7-(N-(3-(DIMETHYLAMINO)PROPYL)-3,3,3-TRIFLUOROPROPANAMIDO)TRIDECANEDIOATE] | 6.22 | – | – | 138 ± 64* ng luc/g liver | 559 ± 207 | –
5 | CCCCCCCC(F)C(=O)N(CCCN1CCCC1)C(CCCCCCCCC(=O)OCC(CCCC)CCCCCC)CCCCCCCCC(=O)OCC(CCCC)CCCCCC (stereo not shown) [Compound I-22, BIS(2-BUTYLOCTYL) 10-(2-FLUORO-N-(3-(PYRROLIDIN-1-YL)PROPYL)NONANAMIDO)NONADECANEDIOATE] | 5.96 | – | – | 10062 ± 2580 ng luc/g liver | 82847 ± 27713 | –
6 | CCCCCCCCC(CCCCCC)COC(=O)CCCCCC(CCCCCC(=O)OCC(CCCCCC)CCCCCCCC)N(CCCCCN(C)C)C(=O)C(F)(F)C(F)(F)C(F)(F)C(F)(F)C(F)(F)C(F)(F)C(F)(F)F (stereo not shown) [Compound I-9, BIS(2-HEXYLDECYL) 7-(N-(5-(DIMETHYLAMINO)PENTYL)-2,2,3,3,4,4,5,5,6,6,7,7,8,8,8-PENTADECAFLUOROOCTANAMIDO)TRIDECANEDIOATE] | 6.32 | 25 ± 16 | – | – | – | –
7 | CCCCCCCCC(CCCCCC)COC(=O)CCCCCCCCC(CCCCCCCCC(=O)OCC(CCCCCC)CCCCCCCC)N(CCCN(C)C)C(=O)CCCC(F)(F)F (stereo not shown) [Compound I-14, BIS(2-HEXYLDECYL) 10-(N-(3-(DIMETHYLAMINO)PROPYL)-5,5,5-TRIFLUOROPENTANAMIDO)NONADECANEDIOATE] | 6.28 | 331 ± 127 | – | – | – | –
8 | CCCCCCC(CCCC)COC(=O)CCCCCC(CCCCCC(=O)OCC(CCCC)CCCCCC)N(CCCCN(C)C)C(=O)C(F)(F)C(F)(F)C(F)(F)C(F)(F)C(F)(F)C(F)(F)C(F)(F)F (stereo not shown) [Compound I-10, BIS(2-BUTYLOCTYL) 7-(N-(4-(DIMETHYLAMINO)BUTYL)-2,2,3,3,4,4,5,5,6,6,7,7,8,8,8-PENTADECAFLUOROOCTANAMIDO)TRIDECANEDIOATE] | 6.18 | 62 ± 44 | – | – | – | –
9 | CCCCC(CC)COC(=O)CCCCCCCCC(CCCCCCCCC(=O)OCC(CC)CCCC)N(CCCCN(C)C)C(=O)C(F)(F)C(F)(F)C(F)(F)C(F)(F)C(F)(F)C(F)(F)C(F)(F)F (stereo not shown) [Compound I-5, BIS(2-ETHYLHEXYL) 10-(N-(4-(DIMETHYLAMINO)BUTYL)-2,2,3,3,4,4,5,5,6,6,7,7,8,8,8-PENTADECAFLUOROOCTANAMIDO)NONADECANEDIOATE] | 5.92 | – | – | 3645 ± 1347 ng luc/g liver | 21585 ± 6204 | increased efficacy
10 | CCCCCCCCC(CCCCCC)COC(=O)CCCCCC(CCCCCC(=O)OCC(CCCCCC)CCCCCCCC)N(CCN1CCN(C)CC1)C(=O)C(F)(F)C(F)(F)C(F)(F)C(F)(F)C(F)(F)C(F)(F)C(F)(F)F (stereo not shown) [Compound I-8, BIS(2-HEXYLDECYL) 7-(2,2,3,3,4,4,5,5,6,6,7,7,8,8,8-PENTADECAFLUORO-N-(2-(4-METHYLPIPERAZIN-1-YL)ETHYL)OCTANAMIDO)TRIDECANEDIOATE] | 5.58 | 0 | – | – | – | –
11 | CCCCCCCCC(CCCCCC)COC(=O)CCCCCC(CCCCCC(=O)OCC(CCCCCC)CCCCCCCC)N(CCCCN(C)C)C(=O)C(F)(F)C(F)(F)C(F)(F)C(F)(F)C(F)(F)C(F)(F)C(F)(F)F (stereo not shown) [Compound I-7, BIS(2-HEXYLDECYL) 7-(N-(4-(DIMETHYLAMINO)BUTYL)-2,2,3,3,4,4,5,5,6,6,7,7,8,8,8-PENTADECAFLUOROOCTANAMIDO)TRIDECANEDIOATE] | 6.08 | 39 ± 14 | – | – | – | –
12 | CCCCC(CC)COC(=O)CCCCCCCCC(CCCCCCCCC(=O)OCC(CC)CCC)N(CCCCN(C)C)C(=O)C(F)(F)C(F)(F)C(F)(F)C(F)(F)C(F)(F)C(F)(F)C(F)(F)F (stereo not shown) [I-5 analogue, reference compound] | – | – | 6.86 | 666 ± 589 ng luc/g liver | 1338 ± 798 | –
13 | CCCCCCCCCCN(C(=O)C(F)CCCN(C)C)C(CCCCCCCCC(=O)OCC(CCCC)CCCCCC)CCCCCCCCC(=O)OCC(CCCC)CCCCCC (stereo not shown) [Compound I-24, BIS(2-BUTYLOCTYL) 10-(N-DECYL-5-(DIMETHYLAMINO)-2-FLUOROPENTANAMIDO)NONADECANEDIOATE] | 6.04 | – | – | 9411 ± 1733 ng luc/g liver | – | –
14 | CCCCCCCCC(CCCCCC)COC(=O)CCCCCC(CCCCCC(=O)OCC(CCCCCC)CCCCCCCC)N(CCCN(C)C)C(=O)CCCC(F)(F)F (stereo not shown) [Compound I-13, BIS(2-HEXYLDECYL) 7-(N-(3-(DIMETHYLAMINO)PROPYL)-5,5,5-TRIFLUOROPENTANAMIDO)TRIDECANEDIOATE] | 6.68 | 658 ± 262 | – | – | – | –
